Laboratory results: patent publication US9416102B2, “(22E)-2-methylene-22-dehydro-1α,24,25-trihydroxy-19-nor-vitamin D3 analogs” (Wisconsin Alumni Research Foundation, priority 2013, dated 2016)

Assays:
[1] = tested on: ovariectomized (OVX) Sprague-Dawley female rats; assay: Ovariectomized rat model, bone strength testing (3-point bending); type: in vivo; settings: 60 ng/kg body weight once daily for 17 weeks, FIG. 6
Protocol: Virgin Sprague-Dawley female rats were either sham-operated or ovariectomized (OVX) at 4 months of age by the vendor (Harlan). Starting at 16 weeks post-surgery, the animals were given vehicle or test analog (WT or 2MD) once daily for 17 weeks. Bone mineral density (BMD) and serum and urinary calcium levels were assessed periodically throughout the study. At termination, femurs were collected for bone strength testing (3-point bending, Numira Biosciences).

[2] = tested on: 24-hydroxylase (24OHase) gene promoter; assay: In vitro transcription assay (luciferase reporter in ROS 17/2.8 cells); type: cell-based; settings: FIG. 3; for stimulation of gene transcription compared to the native hormone: in words
Protocol: In Vitro Transcription Assay
Transcription activity was measured in ROS 17/2.8 (bone) cells that were stably transfected with a 24-hydroxylase (24OHase) gene promoter upstream of a luciferase reporter gene (Arbour et al., 1998). Cells were given a range of doses. Sixteen hours after dosing the cells were harvested and luciferase activities were measured using a luminometer. RLU=relative luciferase units.

[3] = target: T1, Full-length recombinant rat receptor (vitamin D receptor, VDR) (Rattus norvegicus, UniProt P13053); assay: Vitamin D receptor competitive binding; settings: relative to 1,25(OH)2D3, FIG. 1; for competition for binding to the VDR compared to the native hormone: in words
T1 construct: Full-length recombinant rat receptor was expressed in E. coli; histidine tag (C); made in house; host or cells: E. coli BL21(DE3) Codon Plus RIL
T1 sequence (P13053 1-423): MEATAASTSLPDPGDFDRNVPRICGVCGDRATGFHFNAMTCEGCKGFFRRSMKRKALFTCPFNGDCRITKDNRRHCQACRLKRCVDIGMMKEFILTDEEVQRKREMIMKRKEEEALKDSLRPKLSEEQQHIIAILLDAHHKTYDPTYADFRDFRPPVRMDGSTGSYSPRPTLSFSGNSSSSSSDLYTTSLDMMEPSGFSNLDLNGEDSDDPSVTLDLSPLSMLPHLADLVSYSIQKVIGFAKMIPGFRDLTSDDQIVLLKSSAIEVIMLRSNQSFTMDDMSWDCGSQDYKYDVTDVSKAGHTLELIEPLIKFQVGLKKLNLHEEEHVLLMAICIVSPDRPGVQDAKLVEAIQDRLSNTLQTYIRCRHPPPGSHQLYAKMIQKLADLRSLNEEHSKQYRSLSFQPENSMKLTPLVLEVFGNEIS
Excerpt: Vitamin D Receptor Binding
Full-length recombinant rat receptor was expressed in E. coli BL21(DE3) Codon Plus RIL cells and purified to homogeneity using two different column chromatography systems. The first system was a nickel affinity resin that utilizes the C-terminal histidine tag on this protein. The protein that was eluted from this resin was further purified using ion exchange chromatography (S-Sepharose Fast Flow). Aliquots of the purified protein were quick frozen in liquid nitrogen and stored at −80° C. until use. For use in binding assays, the protein was diluted in TEDK50 (50 mM Tris, 1.5 mM EDTA, pH 7.4, 5 mM DTT, 150 mM KCl) with 0.1% Chaps detergent. The receptor protein and ligand concentration was optimized such that no more than 20% of the added radiolabeled ligand was bound to the receptor.
Unlabeled ligands were dissolved in ethanol and the concentrations determined using UV spectrophotometry (1,25(OH)2D3: molar extinction coefficient=18,200 and 1max=265 nm; Analogs: molar extinction coefficient=42,000 and 1max=252 nm). Radiolabeled ligand (^3H-1,25(OH)2D3, ˜159 Ci/mmole) was added in ethanol at a final concentration of 1 nM.
Radiolabeled and unlabeled ligands were added to 100 mcl of the diluted protein at a final ethanol concentration of ≦10%, mixed and incubated overnight on ice to reach binding equilibrium. The following day, 100 mcl of hydroxylapatite slurry (50%) was added to each tube and mixed at 10-minute intervals for 30 minutes. The hydroxyapaptite was collected by centrifugation and then washed three times with Tris-EDTA buffer (50 mM Tris, 1.5 mM EDTA, pH 7.4) containing 0.5% Titron X-100. After the final wash, the pellets were transferred to scintillation vials containing 4 ml of Biosafe II scintillation cocktail, mixed and placed in a scintillation counter. Total binding was determined from the tubes containing only radiolabeled ligand.

[4] = tested on: Human promyelocytic leukemia (HL-60) cells; assay: HL-60 differentiation (nitro blue tetrazolium reduction); type: cell-based; settings: relative to 1,25(OH)2D3; FIG. 2
Protocol: The study drugs were dissolved in ethanol and the concentrations determined using UV spectrophotometry. Serial dilutions were prepared so that a range of drug concentrations could be tested without changing the final concentration of ethanol (≦0.2%) present in the cell cultures.
Human promyelocytic leukemia (HL-60) cells were grown in RPMI-1640 medium containing 10% fetal bovine serum. The cells were incubated at 37° C. in the presence of 5% CO2.
HL-60 cells were plated at 1.2×10^5 cells/ml. Eighteen hours after plating, cells in duplicate were treated with drug. Four days later, the cells were harvested and a nitro blue tetrazolium reduction assay was performed (Collins et al., 1979; J. Exp. Med. 149:969-974). The percentage of differentiated cells was determined by counting a total of 200 cells and recording the number that contained intracellular black-blue formazan deposits. Verification of differentiation to monocytic cells was determined by measuring phagocytic activity (data not shown).

## C=C1[C@H](O)CC(=C/C=C2\CCC[C@]3(C)[C@@H]([C@H](C)/C=C/[C@@H](O)C(C)(C)O)CC[C@@H]23)C[C@H]1O [WT-51, (22E)-(24R)-2-methylene-22-dehydro-1α,24,25-trihydroxy-19-nor-vitamin D3]
[1]
  bone strength compared to 2MD at 2.5 ng/kg body weight: improves bone strength in ovariectomized rats to the same degree as 2MD
[2]
  stimulation of gene transcription compared to the native hormone: nearly one log more potent than the native hormone
[2]; relative to 1,25(OH)2D3
  stimulating gene transcription from the 24OHase gene promoter, times more effective than the natural hormone: approximately 10 ×
[3]
  competition for binding to the VDR compared to the native hormone: one log less than the native hormone
  binding to the vitamin D receptor (VDR), times less active than the natural hormone: approximately 10 ×
[4]
  promoting HL-60 cell differentiation, times more potent than the native hormone: approximately 10 ×

## C=C1[C@H](O)CC(=C/C=C2\CCC[C@]3(C)[C@@H]([C@H](C)/C=C/[C@H](O)C(C)(C)O)CC[C@@H]23)C[C@H]1O [WT-52, (22E)-(24S)-2-methylene-22-dehydro-1α,24,25-trihydroxy-19-nor-vitamin D3]
[2]
  stimulation of gene transcription compared to the native hormone: approximately the same activity as the native hormone
[3]
  competition for binding to the VDR compared to the native hormone: one log less than the native hormone
  binding to the vitamin D receptor (VDR), times less active than the natural hormone: approximately 10 ×
